Assay results from ChEMBL document CHEMBL5380795, “Design, Synthesis, and Bioactivity Investigation of Cyclic Lipopeptide Antibiotics Containing Eight to Nine Amino Acids” (J Med Chem, 2023).
Values after ≈ are worked out from the molar mass of the structure shown. Bridge positions count the residues as written; N and C are the ends. Square brackets hold non-standard residues; d marks the D form. Peptide text beside a SMILES is read from it. * marks the point of attachment. Decanoyl(3R-OH) = CCCCCCC[C@@H](O)CC(=O)*; dDab = NCC[C@@H](N)C(=O)O; Dab = NCC[C@H](N)C(=O)O

Columns and labels:
Staphylococcus aureus [1] = assay: Antibacterial activity against methicillin resistant Staphylococcus aureus ATCC 33591 assessed as inhibition of bacterial growth incubated for 18 to 24 hrs by broth microdilution method; format: functional; conditions: time 18-24 hrs
Staphylococcus aureus [2] = assay: Antibacterial activity against Staphylococcus aureus ATCC 29213 assessed as inhibition of bacterial growth incubated for 18 to 24 hrs by broth microdilution method; format: functional; conditions: time 18-24 hrs
[3] = system: Staphylococcus epidermidis; assay: Antibacterial activity against methicillin resistant Staphylococcus epidermidis clinical isolate 19-5 assessed as inhibition of bacterial growth incubated for 18 to 24 hrs by broth microdilution method; format: functional; conditions: time 18-24 hrs
[4] = system: Staphylococcus epidermidis; assay: Antibacterial activity against methicillin resistant Staphylococcus epidermidis clinical isolate 19-6 assessed as inhibition of bacterial growth incubated for 18 to 24 hrs by broth microdilution method; format: functional; conditions: time 18-24 hrs
Escherichia coli [5] = assay: Antibacterial activity against Escherichia coli ATCC BAA-2523 assessed as inhibition of bacterial growth incubated for 18 to 24 hrs by broth microdilution method; format: functional; conditions: time 18-24 hrs
Escherichia coli [6] = assay: Antibacterial activity against Escherichia coli NCTC 13353 assessed as inhibition of bacterial growth incubated for 18 to 24 hrs by broth microdilution method; format: functional; conditions: time 18-24 hrs
Escherichia coli [7] = assay: Antibacterial activity against Escherichia coli clinical isolate 19-2 assessed as inhibition of bacterial growth incubated for 18 to 24 hrs by broth microdilution method; format: functional; conditions: time 18-24 hrs
Escherichia coli [8] = assay: Antibacterial activity against KPC producing Escherichia coli ATCC BAA-2340 assessed as inhibition of bacterial growth incubated for 18 to 24 hrs by broth microdilution method; format: functional; conditions: time 18-24 hrs
Klebsiella pneumoniae [9] = assay: Antibacterial activity against carbapenem resistant Klebsiella pneumoniae clinical isolate 19-15 assessed as inhibition of bacterial growth incubated for 18 to 24 hrs by broth microdilution method; format: functional; conditions: time 18-24 hrs
Klebsiella pneumoniae [10] = assay: Antibacterial activity against carbapenem resistant Klebsiella pneumoniae clinical isolate 19-17 assessed as inhibition of bacterial growth incubated for 18 to 24 hrs by broth microdilution method; format: functional; conditions: time 18-24 hrs
Klebsiella pneumoniae [11] = assay: Antibacterial activity against KPC producing Klebsiella pneumoniae ATCC BAA-1705 assessed as inhibition of bacterial growth incubated for 18 to 24 hrs by broth microdilution method; format: functional; conditions: time 18-24 hrs
Pseudomonas aeruginosa [12] = assay: Antibacterial activity against Pseudomonas aeruginosa clinical isolate 19-1 assessed as inhibition of bacterial growth incubated for 18 to 24 hrs by broth microdilution method; format: functional; conditions: time 18-24 hrs
Pseudomonas aeruginosa [13] = assay: Antibacterial activity against carbapenem resistant Pseudomonas aeruginosa clinical isolate 19-3 assessed as inhibition of bacterial growth incubated for 18 to 24 hrs by broth microdilution method; format: functional; conditions: time 18-24 hrs
Pseudomonas aeruginosa [14] = assay: Antibacterial activity against carbapenem resistant Pseudomonas aeruginosa clinical isolate 17-1 assessed as inhibition of bacterial growth incubated for 18 to 24 hrs by broth microdilution method; format: functional; conditions: time 18-24 hrs
Pseudomonas aeruginosa [15] = assay: Antibacterial activity against Pseudomonas aeruginosa ATCC 27853 assessed as inhibition of bacterial growth incubated for 18 to 24 hrs by broth microdilution method; format: functional; conditions: time 18-24 hrs
Acinetobacter baumannii [16] = assay: Antibacterial activity against carbapenem resistant Acinetobacter baumannii clinical isolate 19-8 assessed as inhibition of bacterial growth incubated for 18 to 24 hrs by broth microdilution method; format: functional; conditions: time 18-24 hrs
Acinetobacter baumannii [17] = assay: Antibacterial activity against oxacillinase-27 producing Acinetobacter baumannii NCTC 13304 assessed as inhibition of bacterial growth incubated for 18 to 24 hrs by broth microdilution method; format: functional; conditions: time 18-24 hrs
[18] = Cytotoxicity against human HK-2 cells assessed as inhibition of cell growth incubated for 72 hrs by CCK-8 assay; format: toxicity, cell-based
[19] = Selectivity index, ratio of IC50 for cytotoxicity against human HK-2 cells to MIC for antibacterial activity against Escherichia coli ATCC BAA-2523; format: toxicity, cell-based

| Compound | MIC (Staphylococcus aureus [1]) [mg/L] | MIC (Staphylococcus aureus [2]) [mg/L] | MIC [3] [mg/L] | MIC [4] [mg/L] | MIC (Escherichia coli [5]) [mg/L] | MIC (Escherichia coli [6]) [mg/L] | MIC (Escherichia coli [7]) [mg/L] | MIC (Escherichia coli [8]) [mg/L] | MIC (Klebsiella pneumoniae [9]) [mg/L] | MIC (Klebsiella pneumoniae [10]) [mg/L] | MIC (Klebsiella pneumoniae [11]) [mg/L] | MIC (Pseudomonas aeruginosa [12]) [mg/L] | MIC (Pseudomonas aeruginosa [13]) [mg/L] | MIC (Pseudomonas aeruginosa [14]) [mg/L] | MIC (Pseudomonas aeruginosa [15]) [mg/L] | MIC (Acinetobacter baumannii [16]) [mg/L] | MIC (Acinetobacter baumannii [17]) [mg/L] | IC50 at 72 h [18] [mg/L] | selectivity ratio [19] |
| --- | --- | --- | --- | --- | --- | --- | --- | --- | --- | --- | --- | --- | --- | --- | --- | --- | --- | --- | --- |
| CCCCCCCCCC(=O)N[C@H](CCN)C(=O)N[C@H]1CCNC(=O)[C@H]([C@@H](C)O)NC(=O)[C@H](CCN)NC(=O)[C@H](CCN)NC(=O)[C@H](CC(C)C)NC(=O)[C@@H](Cc2cccc(Cl)c2)NC(=O)[C@H](CCN)NC1=O | 64 (≈ 60.9 µM) | 32 (≈ 30.5 µM) | 2 (≈ 1.9 µM) | 2 (≈ 1.9 µM) | 2 (≈ 1.9 µM) | 4 (≈ 3.81 µM) | 2 (≈ 1.9 µM) | 1 (≈ 0.952 µM) | 4 (≈ 3.81 µM) | 4 (≈ 3.81 µM) | 2 (≈ 1.9 µM) | 2 (≈ 1.9 µM) | 2 (≈ 1.9 µM) | 32 (≈ 30.5 µM) | 32 (≈ 30.5 µM) | 16 (≈ 15.2 µM) | 16 (≈ 15.2 µM) | 42.5 (≈ 40.4 µM) | 21.3 |
| CCCCCCC[C@@H](O)CC(=O)N[C@H](CCN)C(=O)N[C@H]1CCNC(=O)[C@H]([C@@H](C)O)NC(=O)[C@H](CCN)NC(=O)[C@H](CCN)NC(=O)[C@H](CC(C)C)NC(=O)[C@@H](Cc2ccccc2)NC(=O)[C@H](CCN)NC1=O ({Decanoyl(3R-OH)}-[dDab][Dab][Dab][dF]L[Dab][Dab]T; lactam 2-C) | > 64 | > 64 | 8 (≈ 7.75 µM) | 32 (≈ 31 µM) | 1 (≈ 0.969 µM) | 4 (≈ 3.87 µM) | 2 (≈ 1.94 µM) | 1 (≈ 0.969 µM) | 2 (≈ 1.94 µM) | 4 (≈ 3.87 µM) | 0.5 (≈ 0.484 µM) | 0.5 (≈ 0.484 µM) | 1 (≈ 0.969 µM) | 0.5 (≈ 0.484 µM) | 0.5 (≈ 0.484 µM) | 32 (≈ 31 µM) | 32 (≈ 31 µM) | 125 (≈ 121 µM) | 125 |
| CCCCCCCCCC(=O)N[C@@H](C(=O)N[C@H]1CCNC(=O)[C@H]([C@@H](C)O)NC(=O)[C@H](CCN)NC(=O)[C@H](CCN)NC(=O)[C@H](CC(C)C)NC(=O)[C@@H](CC(C)C)NC(=O)[C@H](CCN)NC1=O)[C@H](C)O | > 64 | > 64 | 16 (≈ 16.3 µM) | 64 (≈ 65.1 µM) | 64 (≈ 65.1 µM) | 64 (≈ 65.1 µM) | 32 (≈ 32.5 µM) | 64 (≈ 65.1 µM) | 64 (≈ 65.1 µM) | 64 (≈ 65.1 µM) | 32 (≈ 32.5 µM) | 16 (≈ 16.3 µM) | 32 (≈ 32.5 µM) | 32 (≈ 32.5 µM) | 8 (≈ 8.14 µM) | > 64 | 64 (≈ 65.1 µM) | 240 (≈ 244 µM) | 3.8 |
| CCCCCCCCCC(=O)N[C@H](CCN)C(=O)N[C@H]1CCCNC(=O)[C@H]([C@@H](C)O)NC(=O)[C@H](CCN)NC(=O)[C@H](CCN)NC(=O)[C@H](CC(C)C)NC(=O)[C@@H](CC(C)C)NC(=O)[C@H](CCN)NC1=O | > 64 | > 64 | 4 (≈ 4.01 µM) | 32 (≈ 32.1 µM) | 16 (≈ 16.1 µM) | 32 (≈ 32.1 µM) | 16 (≈ 16.1 µM) | 16 (≈ 16.1 µM) | 16 (≈ 16.1 µM) | 64 (≈ 64.2 µM) | 16 (≈ 16.1 µM) | 4 (≈ 4.01 µM) | 2 (≈ 2.01 µM) | 4 (≈ 4.01 µM) | 4 (≈ 4.01 µM) | > 64 | > 64 | 158 (≈ 159 µM) | 9.9 |
| CCCCCCCCCC(=O)N[C@H](CCN)C(=O)N[C@H]1CCNC(=O)[C@H]([C@@H](C)O)NC(=O)[C@H](CCN)NC(=O)[C@H](CCN)NC(=O)[C@H](CC(C)C)NC(=O)[C@@H](Cc2ccc(Cl)c(Cl)c2)NC(=O)[C@H](CCN)NC1=O | 32 (≈ 29.5 µM) | 16 (≈ 14.7 µM) | 4 (≈ 3.69 µM) | 4 (≈ 3.69 µM) | 2 (≈ 1.84 µM) | 4 (≈ 3.69 µM) | 2 (≈ 1.84 µM) | 2 (≈ 1.84 µM) | 4 (≈ 3.69 µM) | 4 (≈ 3.69 µM) | 4 (≈ 3.69 µM) | 4 (≈ 3.69 µM) | 4 (≈ 3.69 µM) | 16 (≈ 14.7 µM) | 16 (≈ 14.7 µM) | 16 (≈ 14.7 µM) | 16 (≈ 14.7 µM) | 28.5 (≈ 26.3 µM) | 14.3 |
